Measurements: BindingDB's records for doi:10.1016/j.bmcl.2009.07.064 (University of Glasgow, 2009)

Legend:
[1] = molecular target: Transporter (Rattus norvegicus, UniProt Q63380); assay: Displacement of [3H]nisoxetine from NAT in Sprague-Dawley rat brain after 4 hrs by liquid scintillation analysis
[2] = molecular target: Sodium-dependent dopamine transporter (Rattus norvegicus, UniProt P23977); assay: Displacement of [3H]WIN-35428 from DAT in Sprague-Dawley rat brain after 2 hrs by liquid scintillation analysis
[3] = molecular target: Sodium-dependent serotonin transporter (Rattus norvegicus, UniProt P31652); assay: Displacement of [3H]citalopram from SERT in Sprague-Dawley rat brain after 2 hrs by liquid scintillation analysis
Sequence of Sodium-dependent serotonin transporter (P31652 whole entry): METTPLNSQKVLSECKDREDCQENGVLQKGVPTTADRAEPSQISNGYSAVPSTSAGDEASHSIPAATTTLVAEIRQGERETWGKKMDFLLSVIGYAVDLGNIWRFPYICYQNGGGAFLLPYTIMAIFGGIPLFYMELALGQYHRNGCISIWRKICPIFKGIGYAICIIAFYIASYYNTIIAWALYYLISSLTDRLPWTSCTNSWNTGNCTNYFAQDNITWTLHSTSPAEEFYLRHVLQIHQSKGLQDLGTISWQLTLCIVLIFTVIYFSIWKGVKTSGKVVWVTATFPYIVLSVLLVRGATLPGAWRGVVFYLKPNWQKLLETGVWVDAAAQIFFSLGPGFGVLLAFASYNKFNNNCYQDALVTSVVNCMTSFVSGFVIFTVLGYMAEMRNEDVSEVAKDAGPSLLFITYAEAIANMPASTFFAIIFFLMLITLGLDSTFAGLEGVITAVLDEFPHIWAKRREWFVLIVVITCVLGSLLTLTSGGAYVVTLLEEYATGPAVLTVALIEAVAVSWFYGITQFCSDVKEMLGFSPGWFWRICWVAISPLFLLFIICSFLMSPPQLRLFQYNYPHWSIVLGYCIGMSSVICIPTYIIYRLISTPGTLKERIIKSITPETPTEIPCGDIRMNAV

Sequence of Transporter (Q63380 whole entry): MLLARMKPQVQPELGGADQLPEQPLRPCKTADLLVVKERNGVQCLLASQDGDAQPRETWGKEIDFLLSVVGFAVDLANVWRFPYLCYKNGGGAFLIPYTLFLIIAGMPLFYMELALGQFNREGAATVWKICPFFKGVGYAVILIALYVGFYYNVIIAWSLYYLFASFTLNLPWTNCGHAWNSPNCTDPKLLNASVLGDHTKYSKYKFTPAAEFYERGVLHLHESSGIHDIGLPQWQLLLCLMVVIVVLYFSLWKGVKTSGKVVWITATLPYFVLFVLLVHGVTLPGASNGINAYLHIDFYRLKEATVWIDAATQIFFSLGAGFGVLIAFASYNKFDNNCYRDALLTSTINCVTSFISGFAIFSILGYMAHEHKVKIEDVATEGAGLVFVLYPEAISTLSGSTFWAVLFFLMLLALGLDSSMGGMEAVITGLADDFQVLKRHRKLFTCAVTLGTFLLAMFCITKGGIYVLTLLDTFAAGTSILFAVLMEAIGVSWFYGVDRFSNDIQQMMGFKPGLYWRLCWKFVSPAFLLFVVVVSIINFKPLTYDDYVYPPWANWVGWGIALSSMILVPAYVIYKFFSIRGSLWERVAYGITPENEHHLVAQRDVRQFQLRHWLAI
Sequence of Sodium-dependent dopamine transporter (P23977 whole entry): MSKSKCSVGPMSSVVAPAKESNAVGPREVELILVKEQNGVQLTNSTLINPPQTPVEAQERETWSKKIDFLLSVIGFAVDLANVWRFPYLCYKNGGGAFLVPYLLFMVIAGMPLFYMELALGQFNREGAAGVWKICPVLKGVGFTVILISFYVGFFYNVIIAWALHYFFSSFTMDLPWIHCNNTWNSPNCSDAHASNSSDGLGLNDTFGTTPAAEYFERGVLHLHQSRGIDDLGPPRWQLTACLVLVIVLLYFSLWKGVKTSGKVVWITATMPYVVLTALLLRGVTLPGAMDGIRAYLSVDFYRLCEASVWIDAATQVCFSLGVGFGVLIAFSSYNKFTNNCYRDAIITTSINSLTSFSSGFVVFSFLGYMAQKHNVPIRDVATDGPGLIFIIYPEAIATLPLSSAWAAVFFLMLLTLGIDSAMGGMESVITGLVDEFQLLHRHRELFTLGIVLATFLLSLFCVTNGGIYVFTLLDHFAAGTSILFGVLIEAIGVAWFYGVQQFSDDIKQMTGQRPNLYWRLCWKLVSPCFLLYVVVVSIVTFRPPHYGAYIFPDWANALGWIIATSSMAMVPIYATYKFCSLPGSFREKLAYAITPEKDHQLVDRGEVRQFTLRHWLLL

Ki [1] | Ki [2] | Ki [3] | SMILES
8.4 nM | 526 nM | 51.5 nM | Ic1ccccc1O[C@@H](c1ccccc1)[C@H]1CNCCO1 [(2R,3S)-2-[(2-Iodophenoxy)phenylmethyl]morpholine]
1700 nM | 1900 nM | 154 nM | Ic1cccc(O[C@@H](c2ccccc2)[C@H]2CNCCO2)c1 [(2R,3S)-2-[(3-Iodophenoxy)phenylmethyl]morpholine]
1100 nM | 2100 nM | 34.5 nM | Ic1ccc(O[C@@H](c2ccccc2)[C@H]2CNCCO2)cc1 [(2R,3S)-2-[(4-Iodophenoxy)phenylmethyl]morpholine]
